{"source": "ChEMBL document CHEMBL2021909", "about": "“Isoflavones inhibit the clonogenicity of human colon cancer cells” (2012)", "key": {"HCT-116 [1]": {"system": "HCT-116", "test": "Inhibition of human HCT116 clonogenicity after 7 days by crystal violet staining by densitometric analysis", "assay_type": "functional"}, "HCT-116 [2]": {"system": "HCT-116", "test": "Cell cycle arrest in human HCT116 cells assessed as accumulation at G1 phase at 20 uM after 48 hrs by flow cytometry (Rvb =45.27 %)", "assay_type": "functional"}, "HCT-116 [3]": {"system": "HCT-116", "test": "Cell cycle arrest in human HCT116 cells assessed as accumulation at S phase at 20 uM after 48 hrs by flow cytometry (Rvb =21.16 %)", "assay_type": "functional"}, "HCT-116 [4]": {"system": "HCT-116", "test": "Cell cycle arrest in human HCT116 cells assessed as accumulation at sub-G1 phase at 20 uM after 48 hrs by flow cytometry (Rvb =7.90 %)", "assay_type": "functional"}, "HCT-116 [5]": {"system": "HCT-116", "test": "Antiproliferative activity against human HCT116 assessed as growth inhibition at 5 to 40 uM hrs by WST-8 assay", "assay_type": "functional, cell-based", "conditions": "TDE = time-dependent effect"}, "HCT-116 [6]": {"system": "HCT-116", "test": "Antiproliferative activity against human HCT116 assessed as growth inhibition after 24 to 48 hrs by WST-8 assay", "assay_type": "functional, cell-based"}, "HCT-116 [7]": {"system": "HCT-116", "test": "Cell cycle arrest in human HCT116 cells assessed as accumulation at G2/M phase at 20 uM after 48 hrs by flow cytometry (Rvb =23.23 %)", "assay_type": "functional"}}, "data": [{"compound": "Cc1c(O)ccc2c(=O)c(-c3ccccc3)coc12", "values": [{"measurement": "inhibition (INH)", "setting": "HCT-116 [1]", "value": 27.7, "unit": "%"}]}, {"compound": "COc1cc(O)c2c(=O)c(-c3ccc(O)cc3)coc2c1", "note": "[PRUNETIN]", "values": [{"measurement": "inhibition (INH)", "setting": "HCT-116 [1]", "value": 74, "unit": "%"}]}, {"compound": "COc1ccc2c(=O)c(-c3ccccc3)coc2c1", "values": [{"measurement": "inhibition (INH)", "setting": "HCT-116 [1]", "value": 42, "unit": "%"}]}, {"compound": "COc1cc2occ(-c3ccccc3Cl)c(=O)c2cc1Cl", "values": [{"measurement": "inhibition (INH)", "setting": "HCT-116 [1]", "value": 5.3, "unit": "%"}]}, {"compound": "COc1ccc2c(=O)c(-c3ccc(Cl)cc3)coc2c1C", "values": [{"measurement": "inhibition (INH)", "setting": "HCT-116 [1]", "value": 58.3, "unit": "%"}]}, {"compound": "COc1ccc(-c2coc3cc(O)c(OC)cc3c2=O)cc1", "note": "[CASTANIN]", "values": [{"measurement": "inhibition (INH)", "setting": "HCT-116 [1]", "value": 4.3, "unit": "%"}]}, {"compound": "O=c1c(-c2ccc(O)cc2)coc2c(O)c(O)ccc12", "values": [{"measurement": "inhibition (INH)", "setting": "HCT-116 [1]", "value": 64, "unit": "%"}]}, {"compound": "COc1ccc2c(=O)c(-c3ccccc3)coc2c1C", "values": [{"measurement": "inhibition (INH)", "setting": "HCT-116 [1]", "value": 54, "unit": "%"}]}, {"compound": "Cc1cc2occ(-c3ccc(Cl)cc3Cl)c(=O)c2cc1Cl", "values": [{"measurement": "inhibition (INH)", "setting": "HCT-116 [1]", "value": 12.7, "unit": "%"}]}, {"compound": "COc1ccc2c(=O)c(-c3ccc(OC)c(OC)c3)coc2c1", "values": [{"measurement": "inhibition (INH)", "setting": "HCT-116 [1]", "value": 35.7, "unit": "%"}]}, {"compound": "COc1cc2c(=O)c(-c3ccc(OC(C)=O)cc3)coc2cc1O", "values": [{"measurement": "inhibition (INH)", "setting": "HCT-116 [1]", "value": 26.7, "unit": "%"}]}, {"compound": "COc1cc(OC)c2c(=O)c(-c3ccc(OC)c(OC)c3)coc2c1", "values": [{"measurement": "inhibition (INH)", "setting": "HCT-116 [1]", "value": 22.3, "unit": "%"}]}, {"compound": "COc1cc(OC)c2c(=O)c(-c3ccc(Br)cc3)coc2c1", "values": [{"measurement": "inhibition (INH)", "setting": "HCT-116 [1]", "value": 13.7, "unit": "%"}]}, {"compound": "COc1ccc(-c2coc3cc(OC)c(OC)cc3c2=O)cc1OC", "values": [{"measurement": "inhibition (INH)", "setting": "HCT-116 [1]", "value": 85.3, "unit": "%"}]}, {"compound": "COc1cc2occ(-c3ccccc3)c(=O)c2cc1OC", "values": [{"measurement": "inhibition (INH)", "setting": "HCT-116 [1]", "value": 91.3, "unit": "%"}, {"measurement": "Activity", "setting": "HCT-116 [2]", "value": 47.46, "unit": "%"}, {"measurement": "Activity", "setting": "HCT-116 [3]", "value": 14.97, "unit": "%"}, {"measurement": "Activity", "setting": "HCT-116 [4]", "value": 21.34, "unit": "%"}, {"measurement": "growth inhibition (GI)", "setting": "HCT-116 [5]", "value": "tde"}, {"measurement": "growth inhibition (GI)", "setting": "HCT-116 [6]", "value": "Dose-dependent effect"}, {"measurement": "Activity", "setting": "HCT-116 [7]", "value": 14.34, "unit": "%"}]}, {"compound": "COc1ccc(-c2coc3c(C)c(OC)ccc3c2=O)cc1", "values": [{"measurement": "inhibition (INH)", "setting": "HCT-116 [1]", "value": 52.7, "unit": "%"}]}, {"compound": "COc1cc(C)c2c(=O)c(-c3ccccc3)coc2c1", "values": [{"measurement": "inhibition (INH)", "setting": "HCT-116 [1]", "value": 55.3, "unit": "%"}]}, {"compound": "COc1cc(OC)c2c(=O)c(-c3cccc(Cl)c3)coc2c1", "values": [{"measurement": "inhibition (INH)", "setting": "HCT-116 [1]", "value": 82.7, "unit": "%"}]}, {"compound": "COc1cc(OC)c2c(=O)c(-c3ccc(Cl)cc3)coc2c1", "values": [{"measurement": "inhibition (INH)", "setting": "HCT-116 [1]", "value": 71.3, "unit": "%"}]}, {"compound": "Cc1c(O)ccc2c(=O)c(-c3ccc(Cl)cc3)coc12", "values": [{"measurement": "inhibition (INH)", "setting": "HCT-116 [1]", "value": 46.3, "unit": "%"}]}, {"compound": "COc1cc2c(=O)c(-c3ccccc3)coc2cc1O", "values": [{"measurement": "inhibition (INH)", "setting": "HCT-116 [1]", "value": 37.3, "unit": "%"}]}, {"compound": "COc1ccc(-c2coc3c(OC)c(OC)ccc3c2=O)cc1", "values": [{"measurement": "inhibition (INH)", "setting": "HCT-116 [1]", "value": 70, "unit": "%"}]}, {"compound": "COc1cc(OC)c2c(=O)c(-c3ccccc3Cl)coc2c1", "values": [{"measurement": "inhibition (INH)", "setting": "HCT-116 [1]", "value": 63.3, "unit": "%"}]}]}
